Data: PubChem BioAssay (NCI)
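Briefly, cells in 96-well plates were exposed to five compound concentrations for 48 h, and endpoints were estimated by linear interpolation. Abbreviation: GI50, concentration required for 50% inhibition of growth. TGI: concentration producing complete growth inhibition.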

What was measured:
Assay in all cases: inhibition of tumour cell growth, NCI panel, 48 h
[1] = system: 786-0 renal
[2] = system: A498 renal
[3] = system: A549 NSCLC
[4] = system: ACHN renal
[5] = system: BT-549 breast
[6] = system: CAKI-1 renal
[7] = system: CCRF-CEM leukemia
[8] = system: COLO 205 colon
[9] = system: DU-145 prostate
[10] = system: EKVX NSCLC
[11] = system: HCC-2998 colon
[12] = system: HCT-116 colon
[13] = system: HCT-15 colon
[14] = system: HL-60(TB) leukemia
[15] = system: HOP-62 NSCLC
[16] = system: HOP-92 NSCLC
[17] = system: HS 578T breast
[18] = system: HT29 colon
[19] = system: K-562 leukemia
[20] = system: KM12 colon
[21] = system: LOX IMVI melanoma
[22] = system: M14 melanoma
[23] = system: MALME-3M melanoma
[24] = system: MCF7 breast
[25] = system: MDA-MB-231 breast
[26] = system: MDA-MB-435
[27] = system: MOLT-4 leukemia
[28] = system: NCI-H226 lung
[29] = system: NCI-H23 lung
[30] = system: NCI-H460 lung
[31] = system: NCI-H522 lung
[32] = system: NCI/ADR-RES ovarian
[33] = system: OVCAR-3 ovarian
[34] = system: OVCAR-4 ovarian
[35] = system: OVCAR-5 ovarian
[36] = system: OVCAR-8 ovarian
[37] = system: PC-3 prostate
[38] = system: RPMI-8226 leukemia
[39] = system: RXF 393 renal
[40] = system: SF-268 CNS
[41] = system: SF-295 CNS
[42] = system: SF-539 CNS
[43] = system: SK-MEL-2 melanoma
[44] = system: SK-MEL-28 melanoma
[45] = system: SK-MEL-5 melanoma
[46] = system: SK-OV-3 ovarian
[47] = system: SNB-19 CNS
[48] = system: SNB-75 CNS
[49] = system: SR leukemia
[50] = system: SW-620 colon
[51] = system: T-47D breast
[52] = system: TK-10 renal
[53] = system: U251 CNS
[54] = system: UACC-257 melanoma
[55] = system: UACC-62 melanoma
[56] = system: UO-31 renal

Q: Cc1cccc2c1NC(=O)[C@@]21[C@H](C(=O)c2ccccc2)[C@]2(C(=O)Nc3ccccc32)[C@H]2CCCN21 was tested. Which GI50 [1] did it give?
A: 36 µM

Q: And the TGI [1]?
A: > 100 µM

Q: And the GI50 [2]?
A: > 100 µM

Q: And the TGI [2]?
A: > 100 µM

Q: What about the GI50 [3] of the same compound?
A: 58.9 µM

Q: What about the TGI [3] of the same compound?
A: > 100 µM

Q: What about the GI50 [4] of the same compound?
A: 19.6 µM

Q: And the TGI [4]?
A: 73 µM

Q: And the GI50 [5]?
A: 27.4 µM

Q: What about the TGI [5] of the same compound?
A: > 100 µM

Q: What about the GI50 [6] of the same compound?
A: 22.4 µM

Q: And the TGI [6]?
A: > 100 µM

Q: And the GI50 [7]?
A: 59.6 µM

Q: And the TGI [7]?
A: > 100 µM

Q: What about the GI50 [8] of the same compound?
A: 46.2 µM

Q: And the TGI [8]?
A: > 100 µM

Q: What about the GI50 [9] of the same compound?
A: > 100 µM

Q: And the TGI [9]?
A: > 100 µM

Q: What about the GI50 [10] of the same compound?
A: 40.6 µM

Q: What about the TGI [10] of the same compound?
A: > 100 µM

Q: What about the GI50 [11] of the same compound?
A: 49.5 µM

Q: And the TGI [11]?
A: > 100 µM

Q: What about the GI50 [12] of the same compound?
A: 15.2 µM

Q: And the TGI [12]?
A: 46.5 µM

Q: What about the GI50 [13] of the same compound?
A: 25.1 µM

Q: And the TGI [13]?
A: > 100 µM

Q: What about the GI50 [14] of the same compound?
A: 56.8 µM

Q: And the TGI [14]?
A: > 100 µM

Q: What about the GI50 [15] of the same compound?
A: 26.7 µM

Q: What about the TGI [15] of the same compound?
A: > 100 µM

Q: What about the GI50 [16] of the same compound?
A: 24.7 µM

Q: And the TGI [16]?
A: 59.1 µM

Q: What about the GI50 [17] of the same compound?
A: 19.5 µM

Q: What about the TGI [17] of the same compound?
A: > 100 µM

Q: What about the GI50 [18] of the same compound?
A: 37.3 µM

Q: What about the TGI [18] of the same compound?
A: > 100 µM

Q: And the GI50 [19]?
A: 33.1 µM

Q: What about the TGI [19] of the same compound?
A: > 100 µM

Q: What about the GI50 [20] of the same compound?
A: 58.9 µM

Q: And the TGI [20]?
A: > 100 µM

Q: What about the GI50 [21] of the same compound?
A: 34.5 µM

Q: And the TGI [21]?
A: > 100 µM

Q: And the GI50 [22]?
A: 43.3 µM

Q: And the TGI [22]?
A: > 100 µM

Q: What about the GI50 [23] of the same compound?
A: 31.4 µM

Q: What about the TGI [23] of the same compound?
A: > 100 µM

Q: What about the GI50 [24] of the same compound?
A: 14.3 µM

Q: And the TGI [24]?
A: > 100 µM

Q: What about the GI50 [25] of the same compound?
A: 21.3 µM

Q: And the TGI [25]?
A: > 100 µM

Q: What about the GI50 [26] of the same compound?
A: 94.7 µM

Q: What about the TGI [26] of the same compound?
A: > 100 µM

Q: And the GI50 [27]?
A: 52.7 µM

Q: And the TGI [27]?
A: > 100 µM

Q: What about the GI50 [28] of the same compound?
A: 27.1 µM

Q: And the TGI [28]?
A: > 100 µM

Q: What about the GI50 [29] of the same compound?
A: 47 µM

Q: What about the TGI [29] of the same compound?
A: > 100 µM

Q: And the GI50 [30]?
A: 24.6 µM

Q: And the TGI [30]?
A: > 100 µM

Q: What about the GI50 [31] of the same compound?
A: 29.2 µM

Q: And the TGI [31]?
A: > 100 µM

Q: And the GI50 [32]?
A: 20.4 µM

Q: What about the TGI [32] of the same compound?
A: 71.5 µM

Q: And the GI50 [33]?
A: 15.5 µM

Q: What about the TGI [33] of the same compound?
A: > 100 µM

Q: And the GI50 [34]?
A: 16.4 µM

Q: What about the TGI [34] of the same compound?
A: 40.7 µM

Q: And the GI50 [35]?
A: > 100 µM

Q: And the TGI [35]?
A: > 100 µM

Q: And the GI50 [36]?
A: 25.2 µM

Q: And the TGI [36]?
A: 92.3 µM

Q: And the GI50 [37]?
A: 36.4 µM

Q: What about the TGI [37] of the same compound?
A: > 100 µM

Q: What about the GI50 [38] of the same compound?
A: > 100 µM

Q: What about the TGI [38] of the same compound?
A: > 100 µM

Q: What about the GI50 [39] of the same compound?
A: 13.5 µM

Q: What about the TGI [39] of the same compound?
A: 47.5 µM

Q: And the GI50 [40]?
A: 30.8 µM

Q: What about the TGI [40] of the same compound?
A: > 100 µM

Q: What about the GI50 [41] of the same compound?
A: 74.6 µM

Q: And the TGI [41]?
A: > 100 µM

Q: And the GI50 [42]?
A: 18.6 µM

Q: What about the TGI [42] of the same compound?
A: 48.9 µM

Q: What about the GI50 [43] of the same compound?
A: 50.5 µM

Q: What about the TGI [43] of the same compound?
A: > 100 µM

Q: And the GI50 [44]?
A: 34.3 µM

Q: What about the TGI [44] of the same compound?
A: > 100 µM

Q: What about the GI50 [45] of the same compound?
A: 84.7 µM

Q: And the TGI [45]?
A: > 100 µM

Q: And the GI50 [46]?
A: 43.3 µM

Q: What about the TGI [46] of the same compound?
A: > 100 µM

Q: And the GI50 [47]?
A: 19.2 µM

Q: And the TGI [47]?
A: > 100 µM

Q: And the GI50 [48]?
A: 15 µM

Q: And the TGI [48]?
A: 63.4 µM

Q: What about the GI50 [49] of the same compound?
A: 15.4 µM

Q: What about the TGI [49] of the same compound?
A: > 100 µM

Q: And the GI50 [50]?
A: 21.6 µM

Q: What about the TGI [50] of the same compound?
A: > 100 µM

Q: What about the GI50 [51] of the same compound?
A: 20.9 µM

Q: What about the TGI [51] of the same compound?
A: > 100 µM

Q: What about the GI50 [52] of the same compound?
A: 36.8 µM

Q: And the TGI [52]?
A: > 100 µM

Q: What about the GI50 [53] of the same compound?
A: 28 µM

Q: And the TGI [53]?
A: 92 µM

Q: What about the GI50 [54] of the same compound?
A: > 100 µM

Q: And the TGI [54]?
A: > 100 µM

Q: What about the GI50 [55] of the same compound?
A: 12.5 µM

Q: And the TGI [55]?
A: > 100 µM

Q: What about the GI50 [56] of the same compound?
A: 17.6 µM

Q: And the TGI [56]?
A: > 100 µM
